The values that follow come from ChEMBL document CHEMBL1139578, “(1H-imidazo[4,5-c]pyridin-2-yl)-1,2,5-oxadiazol-3-ylamine derivatives: further optimisation as highly potent and selective MSK-1-inhibitors” (Bioorg Med Chem Lett, 2005).

Assay [1] concerns the target T1, Ribosomal protein S6 kinase alpha-5 (Homo sapiens, UniProt O75582). Put plainly: Inhibitory concentration against MSK-1.
Target sequence in this assay (O75582 whole entry): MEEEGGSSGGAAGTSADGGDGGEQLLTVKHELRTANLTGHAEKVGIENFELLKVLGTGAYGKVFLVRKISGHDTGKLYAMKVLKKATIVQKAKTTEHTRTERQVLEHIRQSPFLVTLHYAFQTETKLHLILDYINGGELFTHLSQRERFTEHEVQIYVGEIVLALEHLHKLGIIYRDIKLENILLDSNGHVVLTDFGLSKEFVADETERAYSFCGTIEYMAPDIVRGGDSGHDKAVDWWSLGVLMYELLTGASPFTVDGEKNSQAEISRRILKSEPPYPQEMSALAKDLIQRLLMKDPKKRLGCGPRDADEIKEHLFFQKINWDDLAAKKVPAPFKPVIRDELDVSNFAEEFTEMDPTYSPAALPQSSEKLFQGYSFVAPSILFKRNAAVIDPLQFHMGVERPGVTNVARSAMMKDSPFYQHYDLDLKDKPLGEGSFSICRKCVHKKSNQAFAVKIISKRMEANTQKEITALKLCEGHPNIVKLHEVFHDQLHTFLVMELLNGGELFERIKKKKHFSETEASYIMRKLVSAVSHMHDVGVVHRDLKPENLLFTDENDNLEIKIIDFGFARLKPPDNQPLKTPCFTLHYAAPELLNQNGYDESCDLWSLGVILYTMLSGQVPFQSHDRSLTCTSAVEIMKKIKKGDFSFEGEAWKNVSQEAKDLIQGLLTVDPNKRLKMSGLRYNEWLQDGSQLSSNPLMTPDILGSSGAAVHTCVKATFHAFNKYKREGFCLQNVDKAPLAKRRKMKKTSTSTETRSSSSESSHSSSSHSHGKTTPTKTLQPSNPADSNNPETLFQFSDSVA
The target in assay [2] is Mitogen-activated protein kinase 13 (Homo sapiens) (UniProt O15264). Put plainly: Percent inhibition against p38d at 10 uM using 100 uM ATP.
The target of assay [3] is Casein kinase II (Homo sapiens) (UniProt P67870+P68400+P19784). As to the kind of experiment: Percent inhibition against CK2 at 10 uM using 100 uM ATP. Format: protein-complex assay.
For assay [4], the target named is T2, Dual specificity tyrosine-phosphorylation-regulated kinase 1A (Homo sapiens, UniProt Q13627). As to the kind of experiment: Percent inhibition against DYRK1a at 10 uM using 100 uM ATP.
Assay [5] deals with Serine/threonine-protein kinase Chk1 (Homo sapiens) (UniProt O14757). Put plainly: Percent inhibition against Chk1 at 10 uM using 100 uM ATP.
Assay [6] deals with Mitogen-activated protein kinase 14 (Homo sapiens) (UniProt Q16539). As to the kind of experiment: Percent inhibition against p38-alpha at 10 uM using 100 uM ATP.
Mitogen-activated protein kinase 14 (Homo sapiens), sequence (Q16539 whole entry): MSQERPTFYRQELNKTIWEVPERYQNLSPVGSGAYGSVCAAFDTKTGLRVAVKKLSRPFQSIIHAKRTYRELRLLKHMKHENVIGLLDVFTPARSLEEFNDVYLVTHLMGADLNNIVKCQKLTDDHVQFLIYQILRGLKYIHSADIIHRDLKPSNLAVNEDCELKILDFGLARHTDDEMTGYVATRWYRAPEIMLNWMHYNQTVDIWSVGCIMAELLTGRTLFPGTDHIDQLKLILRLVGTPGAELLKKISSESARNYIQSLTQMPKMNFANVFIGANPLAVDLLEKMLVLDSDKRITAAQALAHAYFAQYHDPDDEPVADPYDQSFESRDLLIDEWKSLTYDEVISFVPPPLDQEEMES
The target of assay [7] is Glycogen synthase kinase-3 beta (Homo sapiens) (UniProt P49841). Put plainly: Percent inhibition against GSK3-beta at 10 uM using 100 uM ATP.
The target in assay [8] is 5'-AMP-activated protein kinase catalytic subunit alpha-1 (Homo sapiens) (UniProt Q13131). Put plainly: Percent inhibition against AMPK at 10 uM using 100 uM ATP.
For assay [9], the target named is T3, Ribosomal protein S6 kinase beta-1 (Homo sapiens, UniProt P23443). As to the kind of experiment: Inhibitory concentration against selected kinase p70S6K.
Target sequence in this assay (P23443 whole entry): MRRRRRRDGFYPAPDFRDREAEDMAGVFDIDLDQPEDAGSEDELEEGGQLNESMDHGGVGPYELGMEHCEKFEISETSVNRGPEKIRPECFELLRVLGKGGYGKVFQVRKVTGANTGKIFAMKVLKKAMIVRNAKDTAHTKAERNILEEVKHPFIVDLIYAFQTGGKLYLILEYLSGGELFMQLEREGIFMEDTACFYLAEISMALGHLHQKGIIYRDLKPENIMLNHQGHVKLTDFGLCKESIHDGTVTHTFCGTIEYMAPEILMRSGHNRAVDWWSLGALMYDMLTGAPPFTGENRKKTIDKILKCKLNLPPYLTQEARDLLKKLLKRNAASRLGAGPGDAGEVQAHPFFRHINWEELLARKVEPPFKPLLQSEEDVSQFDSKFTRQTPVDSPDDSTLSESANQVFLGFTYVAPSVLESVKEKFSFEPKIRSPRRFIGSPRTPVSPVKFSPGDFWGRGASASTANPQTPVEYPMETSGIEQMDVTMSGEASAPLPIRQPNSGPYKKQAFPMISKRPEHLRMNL
Assay [10] has as its target T4, Rho-associated protein kinase 1 (Homo sapiens, UniProt Q13464). As to the kind of experiment: Inhibitory concentration against selected kinase ROCK1.
Target sequence in this assay (Q13464 whole entry): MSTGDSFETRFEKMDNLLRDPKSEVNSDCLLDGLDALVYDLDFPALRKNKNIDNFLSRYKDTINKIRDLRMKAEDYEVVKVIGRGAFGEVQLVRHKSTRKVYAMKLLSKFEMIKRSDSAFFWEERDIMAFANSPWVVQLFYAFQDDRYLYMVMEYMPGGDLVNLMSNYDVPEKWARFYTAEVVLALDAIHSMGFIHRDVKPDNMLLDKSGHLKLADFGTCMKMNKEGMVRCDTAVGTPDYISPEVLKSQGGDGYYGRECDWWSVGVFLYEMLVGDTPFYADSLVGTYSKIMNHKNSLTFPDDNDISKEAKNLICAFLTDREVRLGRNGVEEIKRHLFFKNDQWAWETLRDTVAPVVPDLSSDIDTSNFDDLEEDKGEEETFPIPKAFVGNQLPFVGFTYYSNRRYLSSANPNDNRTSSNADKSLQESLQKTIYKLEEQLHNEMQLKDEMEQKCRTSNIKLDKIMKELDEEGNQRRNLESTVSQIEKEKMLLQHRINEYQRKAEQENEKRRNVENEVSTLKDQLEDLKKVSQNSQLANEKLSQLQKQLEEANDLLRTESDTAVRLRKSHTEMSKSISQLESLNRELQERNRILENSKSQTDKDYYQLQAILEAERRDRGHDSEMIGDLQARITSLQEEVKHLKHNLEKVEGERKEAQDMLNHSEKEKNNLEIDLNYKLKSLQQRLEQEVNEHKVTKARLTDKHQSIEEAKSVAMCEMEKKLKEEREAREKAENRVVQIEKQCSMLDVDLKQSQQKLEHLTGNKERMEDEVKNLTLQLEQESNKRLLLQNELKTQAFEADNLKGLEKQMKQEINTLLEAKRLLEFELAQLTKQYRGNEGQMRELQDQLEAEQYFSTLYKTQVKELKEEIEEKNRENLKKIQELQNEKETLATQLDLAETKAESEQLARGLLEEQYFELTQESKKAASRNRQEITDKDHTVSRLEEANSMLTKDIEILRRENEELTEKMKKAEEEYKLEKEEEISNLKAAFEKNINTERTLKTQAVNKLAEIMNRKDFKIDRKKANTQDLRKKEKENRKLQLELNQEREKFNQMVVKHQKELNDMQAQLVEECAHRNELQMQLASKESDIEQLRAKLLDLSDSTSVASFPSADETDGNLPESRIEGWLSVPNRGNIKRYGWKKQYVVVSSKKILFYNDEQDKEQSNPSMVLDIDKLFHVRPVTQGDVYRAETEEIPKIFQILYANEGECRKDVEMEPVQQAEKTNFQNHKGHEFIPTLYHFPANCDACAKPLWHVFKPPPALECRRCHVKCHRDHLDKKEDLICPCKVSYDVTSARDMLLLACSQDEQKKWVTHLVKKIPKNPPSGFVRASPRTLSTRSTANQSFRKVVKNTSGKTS
In assay [11] the target is Mitogen-activated protein kinase 11 (Homo sapiens) (UniProt Q15759). As to the kind of experiment: Percent inhibition against p38b at 10 uM using 100 uM ATP.
Mitogen-activated protein kinase 11 (Homo sapiens), sequence (Q15759 whole entry): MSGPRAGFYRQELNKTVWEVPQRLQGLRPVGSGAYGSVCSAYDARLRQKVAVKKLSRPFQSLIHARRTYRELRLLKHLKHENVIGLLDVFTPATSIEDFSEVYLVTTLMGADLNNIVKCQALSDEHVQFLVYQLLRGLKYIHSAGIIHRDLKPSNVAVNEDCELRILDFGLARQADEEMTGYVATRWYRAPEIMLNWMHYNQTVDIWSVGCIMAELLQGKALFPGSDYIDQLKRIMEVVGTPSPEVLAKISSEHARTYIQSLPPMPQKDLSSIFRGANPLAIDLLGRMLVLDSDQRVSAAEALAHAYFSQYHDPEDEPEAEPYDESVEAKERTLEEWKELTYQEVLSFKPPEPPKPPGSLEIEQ
Assay [12] addresses Serine/threonine-protein kinase Sgk1 (Homo sapiens) (UniProt O00141). As to the kind of experiment: Percent inhibition against SGK at 10 uM using 100 uM ATP.
Assay [13] concerns the target MAP kinase-activated protein kinase 2 (Homo sapiens) (UniProt P49137). Put plainly: Percent inhibition against MAPKAP-K2 at 10 uM using 100 uM ATP.
In assay [14] the target is T2, Dual specificity tyrosine-phosphorylation-regulated kinase 1A. As to the kind of experiment: Inhibitory concentration against selected kinase DYRK1-alpha.
The target in assay [15] is Mitogen-activated protein kinase 1 (Homo sapiens) (UniProt P28482). As to the kind of experiment: Percent inhibition against MAPK2 at 10 uM using 100 uM ATP.
Assay [16] addresses T5, Cyclin-dependent kinase 2 (Homo sapiens, UniProt P24941). As to the kind of experiment: Percent inhibition against CDK2 at 10 uM using 100 uM ATP.
The target of assay [17] is Protein kinase C alpha type (Homo sapiens) (UniProt P17252). Put plainly: Percent inhibition against PKCalpha at 10 uM using 100 uM ATP.
The target of assay [18] is Mitogen-activated protein kinase 8 (Homo sapiens) (UniProt P45983). As to the kind of experiment: Percent inhibition against JNK1 at 10 uM using 100 uM ATP.
Mitogen-activated protein kinase 8 (Homo sapiens), sequence (P45983 whole entry): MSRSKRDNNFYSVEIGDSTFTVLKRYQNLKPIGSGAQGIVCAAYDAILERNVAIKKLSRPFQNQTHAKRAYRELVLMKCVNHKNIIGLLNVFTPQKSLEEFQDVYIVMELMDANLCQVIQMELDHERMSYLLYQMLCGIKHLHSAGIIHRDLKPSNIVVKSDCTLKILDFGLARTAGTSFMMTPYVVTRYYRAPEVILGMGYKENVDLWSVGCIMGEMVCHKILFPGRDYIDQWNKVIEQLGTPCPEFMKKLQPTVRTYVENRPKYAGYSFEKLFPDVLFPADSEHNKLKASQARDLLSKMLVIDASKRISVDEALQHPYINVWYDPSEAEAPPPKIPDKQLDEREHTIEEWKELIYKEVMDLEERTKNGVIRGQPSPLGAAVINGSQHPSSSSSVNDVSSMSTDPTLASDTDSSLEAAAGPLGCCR
Assay [19] deals with T4, Rho-associated protein kinase 1. As to conditions: 10 uM.
Description: Percent inhibition against ROCK1 at 10 uM using 100 uM ATP
Assay [20] deals with Ribosomal protein S6 kinase alpha-1 (Homo sapiens) (UniProt Q15418). Put plainly: Percent inhibition against MAPKAP-K1a at 10 uM using 100 uM ATP.
In assay [21] the target is cAMP-dependent protein kinase (PKA) (Homo sapiens) (UniProt P22694+P17612+P22612). As to the kind of experiment: Percent inhibition against PKA at 10 uM using 100 uM ATP. It counts as protein assay.
In assay [22] the target is T5, Cyclin-dependent kinase 2. As to the kind of experiment: Inhibitory concentration against selected kinase CDK2.
For assay [23], the target named is Dual specificity mitogen-activated protein kinase kinase 1 (Homo sapiens) (UniProt Q02750). Put plainly: Percent inhibition against MKK1 at 10 uM using 100 uM ATP.
Dual specificity mitogen-activated protein kinase kinase 1 (Homo sapiens), sequence (Q02750 whole entry): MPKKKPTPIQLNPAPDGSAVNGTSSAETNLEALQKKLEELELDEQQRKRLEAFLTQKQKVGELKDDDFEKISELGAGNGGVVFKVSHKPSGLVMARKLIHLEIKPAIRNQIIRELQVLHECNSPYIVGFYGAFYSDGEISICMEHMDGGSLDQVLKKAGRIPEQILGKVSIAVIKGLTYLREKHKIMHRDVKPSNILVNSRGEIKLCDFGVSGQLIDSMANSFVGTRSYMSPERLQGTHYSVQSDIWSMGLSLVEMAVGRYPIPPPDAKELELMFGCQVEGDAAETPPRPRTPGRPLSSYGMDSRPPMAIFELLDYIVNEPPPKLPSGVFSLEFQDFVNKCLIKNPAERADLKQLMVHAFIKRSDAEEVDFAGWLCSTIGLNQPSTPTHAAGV
Assay [24] concerns the target T3, Ribosomal protein S6 kinase beta-1. As to conditions: 10 uM.
Target sequence in this assay (P23443 whole entry, looked up): as the sequence (P23443 whole entry) above
Description: Percent inhibition against p70S6K at 10 uM using 100 uM ATP
The target of assay [25] is 3-phosphoinositide-dependent protein kinase 1 (Homo sapiens) (UniProt O15530). As to the kind of experiment: Percent inhibition against PDK1 at 10 uM using 100 uM ATP.
For assay [26], the target named is T1, Ribosomal protein S6 kinase alpha-5. Put plainly: Percent inhibition against MSK1 at 10 uM using 100 uM ATP.
Target sequence in this assay (O75582 whole entry, looked up): as the sequence (O75582 whole entry) above

Broadly, the IC50 is the concentration needed to halve the response being measured. High values mean a need for much substance, low ones inhibition by little substance. As usually defined, the inhibition is the drop in the measured response relative to a control, in per cent.

MAP kinase-activated protein kinase 2 (Homo sapiens), sequence (P49137 whole entry, looked up): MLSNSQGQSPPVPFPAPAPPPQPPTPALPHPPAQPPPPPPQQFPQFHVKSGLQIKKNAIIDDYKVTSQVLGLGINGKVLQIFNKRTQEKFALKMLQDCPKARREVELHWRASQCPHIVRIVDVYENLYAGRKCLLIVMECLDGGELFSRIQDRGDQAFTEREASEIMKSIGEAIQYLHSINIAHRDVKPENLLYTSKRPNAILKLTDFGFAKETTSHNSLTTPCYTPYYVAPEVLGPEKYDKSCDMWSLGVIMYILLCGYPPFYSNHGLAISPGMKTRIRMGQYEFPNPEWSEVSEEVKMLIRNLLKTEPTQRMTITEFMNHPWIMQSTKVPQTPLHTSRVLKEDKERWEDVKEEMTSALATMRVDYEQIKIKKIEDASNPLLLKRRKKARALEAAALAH

`NCc1ccc(-n2c(-c3nonc3N)nc3cnccc32)cc1` yielded an IC50 in [1] of 0.004 µM.

In turn, `NCc1cccc(-n2c(-c3nonc3N)nc3cnccc32)c1` yielded an IC50 in assay [1] of 0.0025 µM.

In turn, `CCn1c(-c2nonc2N)nc2c(Cl)nccc21` registered an IC50 in [1] of 0.004 µM.

In [1], `CCOc1nccc2c1nc(-c1nonc1N)n2CC` displayed an IC50 of 0.174 µM.

Consider `CCn1c(-c2nonc2N)nc2c(-c3ccccc3)nccc21`, for which the IC50 in assay [1] turned out to be 0.813 µM.

In turn, `Nc1nonc1-c1nc2cnccc2n1C1CCCCC1` had an IC50 in assay [1] of 0.003 µM.

In the case of `CCn1c(-c2nonc2N)nc2cnccc21`, the inhibition in [2] was 6%; in assay [3], 15%; in assay [4], 94%; in assay [5] it was -6%; in assay [6], -7%; in assay [7] it was 90%. The inhibition in [8] turned out to be 59%; in [11], 18%; in assay [12], 67%; in assay [13] it was 12%; in assay [15], 41%; in assay [16], 84%. The inhibition came out at 56% in [17]; 13% in assay [18]; 90% in assay [19]; 97% in assay [20]; 75% in assay [21]; 17% in [23]. The inhibition was 95% in assay [24], 32% in assay [25] and 96% in assay [26]. The IC50 in [9] amounted to 0.07 µM; in [10], 0.013 µM; in assay [14] it was 0.11 µM; in assay [1], 0.003 µM; in assay [22] it was 0.169 µM.

For the compound `CCn1c(-c2nonc2N)nc2c(Oc3ccccc3)nccc21`, half-maximal inhibition in assay [1] (IC50) required 10 µM.

`CCc1nccc2c1nc(-c1nonc1N)n2CC` registered an IC50 in assay [1] of 0.229 µM.

Take `Nc1nonc1-c1nc2cnccc2n1-c1ccccc1`: half-maximal inhibition in [1] (IC50) required 0.006 µM.

As for `CCn1c(-c2nonc2N)nc2cncc(CN3CCCCC3)c21`, the IC50 in assay [1] was 0.007 µM.

On to `CN(C)CCCn1c(-c2nonc2N)nc2cnccc21`, for which, in assay [1], the IC50 amounted to 0.617 µM.

Compound `CCn1c(-c2nonc2N)nc2c(OC)nccc21` had an IC50 in assay [1] of 0.209 µM.

`NCCCCn1c(-c2nonc2N)nc2cnccc21`: in [1], the IC50 turned out to be 0.013 µM.

The compound `Nc1nonc1-c1nc2cnccc2n1C1CC1` had an IC50 in [1] of 0.0015 µM.

`CCn1c(-c2nonc2N)nc2c(C)nccc21` came in with an IC50 in assay [1] of 0.008 µM.

`CCn1c(-c2nonc2N)nc2c(N3CCCC3)nccc21` gave an IC50 in assay [1] of 2.24 µM.

Consider `NCCCn1c(-c2nonc2N)nc2cnccc21`, for which the IC50 in assay [1] stood at 0.022 µM.

Turning to `Nc1nonc1-c1nc2cnccc2n1C1CCNCC1`, in assay [1], the IC50 was 0.017 µM.

Take `CCn1c(-c2nonc2N)nc2cncc(CN3CCC(N)CC3)c21`: 0.003 µM corresponded to half-maximal inhibition in assay [1] (IC50).

As to `CCn1c(-c2nonc2N)nc2cncc(CNC3CCNCC3)c21`, the IC50 in assay [9] is 0.27 µM; in assay [10], 0.1 µM; in assay [14], 4.9 µM; in [1] it was 0.0005 µM; in assay [22] it was greater than 10 µM.

As for `CCn1c(-c2nonc2N)nc2cncc(CN3CCNCC3)c21`, the IC50 in assay [1] worked out at 0.0014 µM.

`Nc1nonc1-c1nc2cnccc2n1C1CCCNC1` (racemic) returned an IC50 in assay [1] of 0.002 µM.
